Data reported in patent US20180148418A1, “AMIDO-SUBSTITUTED CYCLOHEXANE DERIVATIVES” (Bayer Pharma Aktiengesellschaft, priority 2015, published 2018).
Counter-ions that a name gives are not always drawn.

How the values were obtained:
[1] = tested on: wildtype Wnt signaling cascade; assay: HEK293 TOP assay (Super TopFlash luciferase reporter, Wnt-3a stimulated); type: cell-based; details: Homo sapiens, HEK293 TOP reporter cells, Wnt3a at EC50, 16 hours
Method in brief: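 HEK293 cells stably carrying Super TopFlash (TOP) run in parallel with FOP cells, 10000/well plated 24 h ahead, stimulated with recombinant human Wnt-3a. Compounds tested 50 μM to 15 nM in 3.16-fold steps in CAFTY buffer pH 7.4 with 2 mM Ca^2+ and 0.01% BSA; luciferase read-out.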

[2] = molecular target: T1, TNKS2 (Homo sapiens, UniProt Q9H2K2); assay: TNKS2 Assay B (auto-parsylation, [3H]-NAD+ SPA); type: biochemical; details: 6 nM TNKS2, auto-parsylation, over night at room temperature
T1 construct: purchased BPS Bioscience, San Diego, USA 80572 (TNKS2 Histone Ribosylation Assay Kit)
T1 sequence (Q9H2K2 1-1166): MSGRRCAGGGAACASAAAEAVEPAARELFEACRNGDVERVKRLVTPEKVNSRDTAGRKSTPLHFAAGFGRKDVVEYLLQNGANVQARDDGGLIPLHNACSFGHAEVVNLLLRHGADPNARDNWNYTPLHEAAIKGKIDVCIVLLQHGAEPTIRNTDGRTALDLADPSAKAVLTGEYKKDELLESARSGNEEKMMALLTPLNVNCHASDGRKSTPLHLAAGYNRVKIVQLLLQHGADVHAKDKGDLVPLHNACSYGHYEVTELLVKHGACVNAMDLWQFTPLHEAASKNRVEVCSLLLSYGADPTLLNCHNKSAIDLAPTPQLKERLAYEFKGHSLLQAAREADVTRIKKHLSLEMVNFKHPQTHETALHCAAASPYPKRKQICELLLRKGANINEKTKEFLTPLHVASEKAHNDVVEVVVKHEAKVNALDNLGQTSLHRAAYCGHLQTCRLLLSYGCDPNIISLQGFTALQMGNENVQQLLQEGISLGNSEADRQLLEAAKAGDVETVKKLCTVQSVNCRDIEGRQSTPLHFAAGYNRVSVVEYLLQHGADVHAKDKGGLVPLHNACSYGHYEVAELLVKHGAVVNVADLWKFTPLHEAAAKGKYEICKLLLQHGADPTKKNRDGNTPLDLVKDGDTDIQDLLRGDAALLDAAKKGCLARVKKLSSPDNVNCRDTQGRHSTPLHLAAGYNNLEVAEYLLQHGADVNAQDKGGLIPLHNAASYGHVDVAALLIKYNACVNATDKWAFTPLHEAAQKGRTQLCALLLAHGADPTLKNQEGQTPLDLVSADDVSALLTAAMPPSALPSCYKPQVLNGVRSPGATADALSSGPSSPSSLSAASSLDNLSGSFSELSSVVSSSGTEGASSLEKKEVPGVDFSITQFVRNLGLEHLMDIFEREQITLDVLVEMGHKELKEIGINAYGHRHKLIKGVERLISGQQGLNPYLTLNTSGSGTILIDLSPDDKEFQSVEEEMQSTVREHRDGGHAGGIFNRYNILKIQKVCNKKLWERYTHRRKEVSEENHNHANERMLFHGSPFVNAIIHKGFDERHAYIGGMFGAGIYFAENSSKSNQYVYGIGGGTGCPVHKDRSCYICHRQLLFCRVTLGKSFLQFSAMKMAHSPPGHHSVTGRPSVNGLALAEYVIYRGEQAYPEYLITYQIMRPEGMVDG

Row | SMILES | IC50 ([1]; HEK293, 16 h) [nM] | IC50 [2] [nM] | IC50 [1] [nM]
1 | Cc1c(C(C)N(C)C)cnc2c(C(=O)N[C@H]3CC[C@H](C(=O)Nc4ccc(F)cc4Cl)CC3)cnn12 (mixture of isomers) [Example 55, N-{trans-4-[(2-chloro-4-fluorophenyl)carbamoyl]cyclohexyl}-6-[1-(dimethylamino)ethyl]-7-methylpyrazolo[1,5-a]pyrimidine-3-carboxamide formic acid salt] |  | 490 | 280
2 | CNC(C)c1cnc2c(C(=O)N[C@H]3CC[C@H](C(=O)Nc4ccc(F)cc4Cl)CC3)cnn2c1C (stereo partly drawn) [Example 54, N-{trans-4-[(2-chloro-4-fluorophenyl)carbamoyl]cyclohexyl}-7-methyl-6-[1-(methylamino)ethyl]pyrazolo[1,5-a]pyrimidine-3-carboxamide formic acid salt] |  | 680 | 620

More lines, main results first:

Row | IC50 ([1]; HEK293, 16 h) [nM] | IC50 [2] [nM] | SMILES | IC50 [1] [nM]
3 | 25 | 230 | O=C(NCCN1CCCCC1)c1nc[nH]c1C(=O)N[C@H]1CC[C@H](C(=O)Nc2ccc(F)cc2Cl)CC1 [Example 2, N^5-{trans-4-[(2-chloro-4-fluorophenyl)carbamoyl]cyclohexyl}-N^4-[2-(piperidin-1-yl)ethyl]-1H-imidazole-4,5-dicarboxamide] | 
4 | 1800 | 6800 | COCC(C)NC(=O)c1nc[nH]c1C(=O)N[C@H]1CC[C@H](C(=O)Nc2cc(N3CCOCC3)ccc2Cl)CC1 (stereo partly drawn) [Example 91, N^5-(trans-4-{[2-chloro-5-(morpholin-4-yl)phenyl]carbamoyl}cyclohexyl)-N^4-(1-methoxypropan-2-yl)-1H-imidazole-4,5-dicarboxamide] | 
5 |  | 100 | CNC(=O)c1[nH]cnc1C(=O)NC1CCC(C(=O)Nc2ccc(F)cc2Cl)CC1C (racemic) [Example 39, N^4-{4-[(2-chloro-4-fluorophenyl)carbamoyl]-2-methylcyclohexyl}-N^5-methyl-1H-imidazole-4,5-dicarboxamide] | 
